The source of these data is PMC6687188, “Novel lactate dehydrogenase inhibitors with in vivo efficacy against Cryptosporidium parvum” (PLoS Pathogens, 2019).

Where two headings read alike, the source gives them in different places.

The test system of data set [1] is Cryptosporidium parvum. The data set can be described thus: In vitro anti-Cryptosporidium assay in HCT-8 cells (immunofluorescence). The class given is cell-based. As for the experimental part:
HCT-8 cells were cultured in supplemented RPMI-1640 medium in 96-well plates. When the cells were confluent, old medium was replaced with fresh medium. To one set of wells, varying concentrations of recombinant CpLDH inhibitors (reconstituted in DMSO and diluted in RPMI medium) were added, while another set was left without inhibitors. Paromomycin was used as a positive control drug reconstituted in distilled sterile water. Then, 4 x 10^4 freshly excysted sporozoites were added to each well and incubated at 37°C with 5% CO2. After 2 h incubation, varying concentrations of CpLDH inhibitors were added to the set of infected cells that were not treated initially. Control infected cells without inhibitors, but with added DMSO volumes equivalent to those used in the wells with inhibitors, were included. The cells were maintained in culture for a total of either 48 h or 72 h and processed for immunofluorescence assay as previously described. Briefly, medium was decanted and the cells fixed with methanol-acetic acid (9:1) for 2 minute at room temperature. The cells were rehydrated and permeabilized by two successive washes with buffer (0.1% Triton X-100, 0.35 M NaCl, 0.13 M Tris-base, pH 7.6) and blocked with 5% normal goat serum, followed by staining with antibody to C. parvum (SporoGlo; Waterborn, Inc.) overnight at 4°C. The stained cells were washed twice with PBS, followed by water, and then imaged with an inverted fluorescence microscope. Fluorescence quantification was done using ImageJ version 1.37v software (NIH).

Data set [2] concerns Cryptosporidium parvum. The data set is described as follows: In vivo anti-Cryptosporidium efficacy: real-time PCR of C. parvum DNA in feces of infected Gamma interferon knockout mice. The protocol: Gamma interferon knockout mice (B6.129S7-Ifng), 8 weeks of age, were purchased from Charles River, USA. The care and use of the mice was done following the guidelines of protocol number 17024 approved by the University of Illinois at Urbana-Champaign, USA. The animals were allowed to acclimatize for 1 week before experiments commenced. Stock solutions of recombinant CpLDH inhibitors reconstituted in DMSO were diluted in sterile distilled water to reduce the final amount of DMSO in the solution to less than 1% (v/v) before administering them to mice. […] An equivalent volume of PBS containing a cocktail of penicillin (100 units/ml), streptomycin (100 μg/ml), chloramphenicol (34 μg/ml) and amphotericin (0.25 μg/ml) was added to the fecal samples and stored at 4°C until use for quantification of C. parvum genomic DNA load. […]
Genomic DNA was extracted from individual fecal samples collected from mice at different days as described above. […] Quantification of the amount of C. parvum 18s rRNA gene (GenBank accession number AF164102) was performed essentially as described previously. […] The PCR product was fractionated on agarose gel, extracted using the QIAquick Gel extraction kit (Qiagen, USA), and the concentration measured by Nanodrop Spectrophotometer (Fisher, USA). Ten-fold serial dilutions of the extracted DNA fragment were made and used as quantification standards for real-time PCR. […]

Data set [3] concerns Cryptosporidium parvum. The data set is described as follows: Histopathology of distal small intestine of infected mice (denuded villi). It is filed as in vivo. As to conditions: 9 days post-infection. As for the experimental part: Gamma interferon knockout mice (B6.129S7-Ifng), 8 weeks of age, were purchased from Charles River, USA. The care and use of the mice was done following the guidelines of protocol number 17024 approved by the University of Illinois at Urbana-Champaign, USA. The animals were allowed to acclimatize for 1 week before experiments commenced. Stock solutions of recombinant CpLDH inhibitors reconstituted in DMSO were diluted in sterile distilled water to reduce the final amount of DMSO in the solution to less than 1% (v/v) before administering them to mice. Prior to testing the anti-Cryptosporidium effect of the inhibitors in mice, the tolerability of each inhibitor was tested by oral gavage using varying dosages (100–2000 mg/kg body weight) of each inhibitor in groups of mice (three mice for each dose) daily for 7 days. Mice were observed daily for signs of toxicity including changes from normal physical activity, respiration, body temperature, feeding, posture, fur condition or occurrence of death. […] Mice were allocated to groups as follows: “Infected plus inhibitor treatment”; “Infected minus inhibitor treatment”; “Uninfected minus inhibitor treatment” and “Infected plus paromomycin treatment”. Each group contained at least three mice. Each mouse in the infection groups received 5,000 C. parvum oocysts (resuspended in 50 μl of PBS) by oral gavage. Mice were housed individually in cages lined with sterile gauze as bedding. One day post-infection (PI), daily oral gavage administration of recombinant CpLDH inhibitor or paromomycin commenced and continued for a total of 7 days. Untreated mice received an equivalent volume of sterile distilled water (containing DMSO equivalent to the amount administered in the inhibitor-treated group) by oral gavage. […] An equivalent volume of PBS containing a cocktail of penicillin (100 units/ml), streptomycin (100 μg/ml), chloramphenicol (34 μg/ml) and amphotericin (0.25 μg/ml) was added to the fecal samples and stored at 4°C until use for quantification of C. parvum genomic DNA load. […]

The subject of data set [4] is HCT-8 cells. Also on record: method as in PMID 10882689, PMID 18591280. Particulars: concentrations above 1000 μM; cited from earlier work.
Data set [5] relates to Cryptosporidium parvum. Also on record: method as in PMID 18591280. Particulars: read-out: IC50 for inhibition of C. parvum growth in HCT-8 cells; cited from earlier work.
Data set [6] has as its system HCT-8 cells. The data set is described as follows: Compound cytotoxicity assay (WST-1 cell proliferation reagent). Particulars: read-out: CYTOTOXICITY IC50; HCT-8 cells, 24 h. As for the experimental part: A colorimetric assay using the cell proliferation reagent WST-1 (Roche, USA) for the quantification of cell viability was performed. […] When the cells were confluent, the old medium was replaced with fresh medium with or without varying concentrations of chemical compound. After 24 h of culture, 10 μl of the cell proliferation reagent WST-1, (for quantification of cell viability) was added to each well, mixed and the plates incubated for 1 h at 37 C with 5% CO2 in the dark. […] Three independent assays were performed and the dose–response curves of the means of triplicate assays were generated using GraphPad PRISM software to derive the half maximal inhibitory concentration (IC50) of compounds in HCT-8 cells.
In general terms: Tetrazolium assays rely on reduction of a dye to a coloured formazan, in cell work by metabolically active cells.

A short description of data set [7]: Tolerability in mice, daily oral gavage for 7 days. It is filed as in vivo. As to conditions: daily oral gavage over 7 days, no toxicity signs. As for the experimental part:
Gamma interferon knockout mice (B6.129S7-Ifng), 8 weeks of age, were purchased from Charles River, USA. The care and use of the mice was done following the guidelines of protocol number 17024 approved by the University of Illinois at Urbana-Champaign, USA. The animals were allowed to acclimatize for 1 week before experiments commenced. Stock solutions of recombinant CpLDH inhibitors reconstituted in DMSO were diluted in sterile distilled water to reduce the final amount of DMSO in the solution to less than 1% (v/v) before administering them to mice. Prior to testing the anti-Cryptosporidium effect of the inhibitors in mice, the tolerability of each inhibitor was tested by oral gavage using varying dosages (100–2000 mg/kg body weight) of each inhibitor in groups of mice (three mice for each dose) daily for 7 days. Mice were observed daily for signs of toxicity including changes from normal physical activity, respiration, body temperature, feeding, posture, fur condition or occurrence of death. […] An equivalent volume of PBS containing a cocktail of penicillin (100 units/ml), streptomycin (100 μg/ml), chloramphenicol (34 μg/ml) and amphotericin (0.25 μg/ml) was added to the fecal samples and stored at 4°C until use for quantification of C. parvum genomic DNA load. […]

In data set [8] the target is recombinant CpLDH protein (Cryptosporidium parvum, UniProt Q9GT92, F198L/K295E/R251K).

The term IC50 denotes the point on the concentration scale where inhibition reaches its midpoint.

Turning to `NC[C@@H]1O[C@H](O[C@H]2[C@@H](O)[C@H](O[C@@H]3[C@@H](O)[C@H](N)C[C@H](N)[C@H]3O[C@H]3O[C@H](CO)[C@@H](O)[C@H](O)[C@H]3N)O[C@@H]2CO)[C@H](N)[C@@H](O)[C@@H]1O` [paromomycin, reference compound], the concentration for half-maximal inhibition (IC50) in the data set on Cryptosporidium parvum [1] (Cryptosporidium parvum, HCT-8, 48 h post-infection, positive control, time of addition not specified, read-out: IC50, inhibition of C. parvum growth) is 450 µM; in the data set with Cryptosporidium parvum [1] (Cryptosporidium parvum, HCT-8, 72 h post-infection, positive control, time of addition not specified, read-out: IC50, inhibition of C. parvum growth), 400 µM; with Cryptosporidium parvum [5] it was 711 µM. Moreover, in the data set on Cryptosporidium parvum [2] (day 7 post-infection, NSC158011 400 mg/kg, paromomycin 100 mg/kg), the “reduction of shedding of C. parvum in mice feces compared to untreated infected mice” value is “about 3000 fold”. For the same molecule, in the data set on Cryptosporidium parvum [3], the “reduction of percentage of denuded intestinal villi compared to infected untreated mice” value was at least 7 fold. Also, the “cytotoxicity in HCT-8 cells” value with HCT-8 cells [4] is listed as “negligible”.

With `O=C1c2ccccc2C(=O)c2c(O)c(O)cc(O)c21` [NSC10447], the IC50 in the data set on HCT-8 cells [6] stood at 290 µM; with Cryptosporidium parvum [1] (compound added at the time of infection, HCT-8 cells, read-out: IC50, inhibition of C. parvum growth at 72 h p.i.), 83.6 µM; in the data set with Cryptosporidium parvum [1] (read-out: IC50, inhibition of C. parvum growth at 48 h p.i. (2 h), compound added 2 h post-infection, HCT-8 cells), 79.5 µM; in the data set on Cryptosporidium parvum [1] (read-out: IC50, inhibition of C. parvum growth at 48 h p.i., compound added at the time of infection, HCT-8 cells), 72.7 µM; in the data set on Cryptosporidium parvum [1] (read-out: IC50, inhibition of C. parvum growth at 72 h p.i. (2 h), compound added 2 h post-infection, HCT-8 cells) it was 95.2 µM; in data set [8] (read-out: IC50, inhibition of recombinant CpLDH activity) it was 46.3 µM. Besides, the “C. parvum proliferation in vitro, initial screen (in words)” value in the data set on Cryptosporidium parvum [1] (48 h post-infection, concentration at least 50% lower than cytotoxicity IC50) is on record as “significantly (P < 0.05) inhibit C. parvum proliferation”. Also, the “highest tolerable dose in mice” value in data set [7] amounted to 1000 mg/kg. In addition, the “lower C. parvum DNA load in feces compared to infected untreated” value in the data set with Cryptosporidium parvum [2] (250, 500 and 1000 mg/kg, day 3 until day 8) is reported as “at least 50%”. Moreover, the “reduction of percentage of denuded intestinal villi compared to infected untreated mice” value in the data set with Cryptosporidium parvum [3] is at least 7 fold. Moreover, the “intestinal histopathology (in words)” value with Cryptosporidium parvum [3] (distal small intestine) was “prevented villous atrophy and maintained the integrity of the intestinal mucosa”. In data set [8], the “MEAN CpLDH INHIBITION (%)” value amounted to 39.07%.
